We go through eleven compounds from ChEMBL document CHEMBL1129628, “Effect of ring size or an additional heteroatom on the potency and selectivity of bicyclic benzylamine-type inhibitors of phenylethanolamine N-methyltransferase” (J Med Chem, 1996).

The target of test [1] is T1, Phenylethanolamine N-methyltransferase (Bos taurus, UniProt P10938).
T1 sequence (P10938 whole entry): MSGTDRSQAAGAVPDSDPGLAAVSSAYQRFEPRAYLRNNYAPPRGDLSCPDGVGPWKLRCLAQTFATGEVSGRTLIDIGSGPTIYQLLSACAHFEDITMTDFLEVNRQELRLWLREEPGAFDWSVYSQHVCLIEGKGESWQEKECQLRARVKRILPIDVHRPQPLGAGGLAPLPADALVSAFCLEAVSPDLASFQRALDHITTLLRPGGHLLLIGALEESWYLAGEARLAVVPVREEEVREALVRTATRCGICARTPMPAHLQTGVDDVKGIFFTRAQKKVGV
The test is described as follows: In vitro for inhibition of Phenylethanolamine N-Methyltransferase (PNMT).

The nature of test [2]: Selectivity ratio between Ki of alpha-2 adrenoceptor and Ki of PNMT.
For test [3], the target named is T2, Adrenergic receptor alpha-2 (Rattus norvegicus, UniProt P22086+P19328+P22909).
T2 sequence (P22086 whole entry): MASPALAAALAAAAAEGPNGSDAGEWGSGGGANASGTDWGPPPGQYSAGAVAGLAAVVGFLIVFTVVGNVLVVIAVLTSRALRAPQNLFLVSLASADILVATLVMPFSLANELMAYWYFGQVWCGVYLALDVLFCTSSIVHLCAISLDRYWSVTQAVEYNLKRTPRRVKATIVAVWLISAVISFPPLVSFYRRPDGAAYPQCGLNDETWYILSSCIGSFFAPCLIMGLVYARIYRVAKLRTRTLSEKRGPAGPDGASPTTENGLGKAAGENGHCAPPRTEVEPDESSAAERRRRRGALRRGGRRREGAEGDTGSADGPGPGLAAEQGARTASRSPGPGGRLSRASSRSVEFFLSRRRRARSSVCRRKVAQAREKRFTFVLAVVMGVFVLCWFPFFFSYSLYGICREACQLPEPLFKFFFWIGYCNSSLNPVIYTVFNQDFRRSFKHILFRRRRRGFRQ
T2 sequence (P19328 whole entry): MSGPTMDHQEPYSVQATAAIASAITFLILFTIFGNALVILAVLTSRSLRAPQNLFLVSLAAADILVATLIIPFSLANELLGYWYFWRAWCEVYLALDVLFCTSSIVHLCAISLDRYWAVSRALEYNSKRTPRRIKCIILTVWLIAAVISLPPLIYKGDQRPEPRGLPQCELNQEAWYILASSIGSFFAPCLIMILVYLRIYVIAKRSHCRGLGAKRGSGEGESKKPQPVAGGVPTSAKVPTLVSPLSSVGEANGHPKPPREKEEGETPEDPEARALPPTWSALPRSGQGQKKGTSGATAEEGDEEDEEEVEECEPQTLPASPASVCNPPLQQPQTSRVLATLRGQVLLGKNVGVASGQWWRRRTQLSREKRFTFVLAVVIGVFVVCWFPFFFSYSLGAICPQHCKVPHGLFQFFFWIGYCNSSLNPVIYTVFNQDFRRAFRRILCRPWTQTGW
T2 sequence (P22909 whole entry): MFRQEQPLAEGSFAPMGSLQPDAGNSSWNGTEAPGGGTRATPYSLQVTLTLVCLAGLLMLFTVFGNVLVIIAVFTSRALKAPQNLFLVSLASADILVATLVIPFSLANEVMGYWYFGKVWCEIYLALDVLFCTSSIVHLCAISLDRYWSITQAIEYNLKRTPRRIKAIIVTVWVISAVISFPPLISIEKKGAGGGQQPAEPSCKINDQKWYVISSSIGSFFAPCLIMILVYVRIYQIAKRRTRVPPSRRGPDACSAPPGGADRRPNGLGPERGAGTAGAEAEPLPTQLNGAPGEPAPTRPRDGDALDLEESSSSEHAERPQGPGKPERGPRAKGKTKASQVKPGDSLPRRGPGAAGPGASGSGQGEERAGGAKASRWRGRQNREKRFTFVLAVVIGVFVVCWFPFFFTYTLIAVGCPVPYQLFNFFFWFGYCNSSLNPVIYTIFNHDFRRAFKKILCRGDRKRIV
The test is described as follows: In vitro for binding affinity against Alpha-2 adrenergic receptor by radioligand [3H]clonidine in rat.

On to `C[C@@H]1Cc2ccccc2CN1`, for which the Ki in test [1] amounted to 38.3 µM; in test [3], 6.2 µM. In test [2], the Ratio was 0.16.

On to `c1ccc2c(c1)CCNC2` [1,2,3,4-TETRAHYDROISOQUINOLINE], for which the Ki in test [1] amounted to 9.67 µM; in test [3], […]. Moreover, the Ratio in test [2] came to […].

With `c1ccc2c(c1)CNCCN2`, the Ki in test [1] came out at 28 µM; in test [3], 2.6 µM. Moreover, the Ratio in test [2] came to 0.093.

As to `c1ccc2c(c1)CNCCO2`, the values for the Ki in test [1] and in test [3] were 21.2 µM and 4.1 µM, respectively. Besides, the Ratio in test [2] stood at 0.19.

As to `C[C@H]1Cc2ccccc2CN1`, the Ki in test [1] was 1.01 µM; in test [3] it was 0.52 µM. Also, the Ratio in test [2] amounted to 0.51.

Regarding `c1ccc2c(c1)CNCCS2`, the Ki in test [1] stood at 4.1 µM; in test [3], 4.6 µM. For the same compound, in test [2], the Ratio turned out to be 1.1.

With `c1ccc2c(c1)CCCNC2`, the Ki in test [1] was 3.34 µM; in test [3] it was 11 µM. Also, the Ratio in test [2] came to 3.2.

On to `c1ccc2c(c1)CNC2`, for which the Ki in test [1] came to 231 µM; in test [3], 0.82 µM. In addition, the Ratio in test [2] is 0.0035.

Take `CC1Cc2ccccc2CN1` (racemic): the Ki in test [1] came out at 2.13 µM; in test [3], 0.84 µM. Moreover, the Ratio in test [2] worked out at 0.39.

`NCc1ccccc1` [BENZYLAMINE]: the Ki in test [1] is 179 µM; in test [3], 20 µM. Moreover, the Ratio in test [2] amounted to 0.11.

Regarding `c1ccc2c(c1)CCCCNC2`, the Ki turned out to be 21.3 µM in test [1] and 16 µM in test [3]. The Ratio in test [2] came out at 0.73.

One may read the Ki as the equilibrium dissociation constant of an inhibitor or competing ligand from its target. Read a low Ki as higher affinity.
